Test results taken from patent US20230405002A1, “COMBINATIONS OF DIACYLGLYCEROL ACYLTRANSFERASE 2 INHIBITORS AND ACETYL-COA CARBOXYLASE INHIBITOR” (Pfizer Inc., priority 2020, published 2023).
Counter-ions that a name gives are not always drawn.

How the values were obtained:
human DGAT2 (hDGAT2) = human DGAT2 (hDGAT2) (Homo sapiens (Human), UniProt Q96PD7); assay: In vitro DGAT2 assay, determination of IC50 values; type: biochemical; details: geometric mean; hDGAT2 membrane fraction
[1] = target: DGAT2 in human hepatocytes (Homo sapiens (Human), UniProt Q96PD7); assay: Determination of IC50 values for DGAT2 inhibitors in human hepatocytes; type: cell-based; details: geometric mean; cryopreserved human hepatocytes, DGAT1 inhibitor 3 μM present
Sequence of DGAT2 in human hepatocytes (Q96PD7 whole entry): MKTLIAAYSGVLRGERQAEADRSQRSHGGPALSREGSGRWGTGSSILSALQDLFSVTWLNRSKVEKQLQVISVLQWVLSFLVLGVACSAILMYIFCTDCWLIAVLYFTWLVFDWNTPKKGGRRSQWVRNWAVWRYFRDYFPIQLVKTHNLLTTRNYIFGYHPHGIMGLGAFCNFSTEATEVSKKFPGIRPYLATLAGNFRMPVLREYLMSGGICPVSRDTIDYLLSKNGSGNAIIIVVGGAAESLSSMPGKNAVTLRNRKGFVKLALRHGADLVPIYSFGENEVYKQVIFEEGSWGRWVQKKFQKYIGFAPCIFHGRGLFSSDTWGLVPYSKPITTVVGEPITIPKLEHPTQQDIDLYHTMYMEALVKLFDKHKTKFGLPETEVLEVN
Description: For evaluation of the effects of DGAT2 inhibitors in a cell-based setting, cryopreserved human hepatocytes (Lot DOO, Celsis, Baltimore, MD) were thawed and plated onto type I collagen-coated plates according to the manufacturer's instructions. After 18 hours overnight recovery period, the cells were overlayed with media containing 250 μg/mL Geltrex Basement Membrane Matrix (Thermo Fisher). The following day, media was aspirated and replaced with serum-free Williams Media E (Thermo Fisher) containing 400 μM sodium dodecanoate (Sigma-Aldrich, St. Louis, MO) and 2 mM GlutaMAX (Thermo Fisher). […] DGAT2 inhibitors were then added to the desired final concentration. After a 15 minute preincubation, 0.2 μCi [^14C(U)]-glycerol (Perkin Elmer) was added to each well followed by a 3 hour incubation. At this point the media was removed, and the cells lysed via orbital shaking in isopropyl alcohol: tetrahydrofuran (9:1) for 15 minutes prior to centrifugation at 3000 rpm for 10 minutes. Radiolabeled lipids were resolved using a solvent system by thin layer chromatography with the solvent consisting of hexanes: diethyl ether: glacial acetic acid (75:23:2, v/v/v). After separation, radiolabeled lipids were visualized using the Typhoon 9500 phosphorimaging system (GE). The half maximal inhibitory concentrations (IC50 values) were determined by nonlinear regression analysis of the % inhibition dose response curve using GraphPad Prism (GraphPad Software, Inc., La Jolla, CA).
Table 12 below provides the IC50 values of selected Examples for inhibition of DGAT2 in human hepatocytes in accordance with the above-described assay. Results are reported as geometric mean IC50 values, with the number of replicates (n) shown.

human liver microsomes = assay: Intrinsic clearance in human liver microsomes; details: human liver microsome assay, 1 μM
human hepatocytes = assay: High throughput intrinsic clearance in human hepatocytes; details: high throughput human hepatocyte assay, 1 μM
[2] = Determination of pKa (capillary electrophoresis); details: most basic pKa, mean

Sequence of human DGAT2 (hDGAT2) (Q96PD7 whole entry): as above

Row | IC50 (human DGAT2 (hDGAT2)) [nM] | Basic pKa [2] | CLint (+/− STD Dev) (human liver microsomes; trifluoroacetate salt) [µL/min/mg] | CLint (+/− Std Dev) (human hepatocytes; trifluoroacetate salt) | Structure (SMILES) | IC50 [1] [nM] | CLint (+/− STD Dev) (human liver microsomes) [µL/min/mg] | CLint (+/− Std Dev) (human hepatocytes)
1 | 4.4 | – | – | – | CCOc1cccnc1Oc1cncc(-c2ncc(C(=O)NC3CCC(C(F)(F)F)NC3)cn2)c1 (single isomer, unassigned; ent-2) [Example 11, 2-{5-[(3-ethoxypyridin-2-yl)oxy]pyridin-3-yl}-N-[6-(trifluoromethyl)piperidin-3-yl]pyrimidine-5-carboxamide, trifluoroacetate salt, ENT-2] | – | >290 | 38 +/− 2.0 μL/min/10^6 cells
2 | 8.6 | – | – | – | CCOc1cc(F)cnc1Oc1cncc(-c2ncc(C(=O)N[C@@H]3CNC[C@@H](F)C3)cn2)c1 [Example 2, 2-{5-[(3-Ethoxy-5-fluoropyridin-2-yl)oxy]pyridin-3-yl}-N-[(3S,5S)-5-fluoropiperidin-3-yl]pyrimidine-5-carboxamide] | 4.1 | – | –
3 | 140 | – | – | – | CCOc1cccnc1Oc1cncc(-c2ncc(C(=O)N[C@@H]3CNCC(F)(F)C3)cn2)c1 (single isomer, unassigned) [Example 18, N-[(3S)-5,5-difluoropiperidin-3-yl]-2-{5-[(3-ethoxypyridin-2-yl)oxy]pyridin-3-yl}pyrimidine-5-carboxamide or N-[(3R)-5,5-difluoropiperidin-3-yl]-2-{5-[(3-ethoxypyridin-2-yl)oxy]pyridin-3-yl}pyrimidine-5-carboxamide] | 20 | – | –
4 | 39 | 4.7 | – | – | CCOc1cccnc1Oc1cncc(-c2ncc(C(=O)NC3CCC(C(F)(F)F)NC3)cn2)c1 (single isomer, unassigned; ent-1) [Example 10, 2-{5-[(3-ethoxypyridin-2-yl)oxy]pyridin-3-yl}-N-[6-(trifluoromethyl)piperidin-3-yl]pyrimidine-5-carboxamide, trifluoroacetate salt, ENT-1] | – | – | –
5 | – | – | 17 | 4.7 +/− 1.4 μL/min/10^6 cells | CCOc1cccnc1Oc1cncc(-c2ncc(C(=O)N[C@H]3CNCCC3(F)F)cn2)c1 (single isomer, unassigned) [Example 16, N-[(3S)-4,4-difluoropiperidin-3-yl]-2-{5-[(3-ethoxypyridin-2-yl)oxy]pyridin-3-yl}pyrimidine-5-carboxamide, trifluoroacetate salt or N-[(3R)-4,4-difluoropiperidin-3-yl]-2-{5-[(3-ethoxypyridin-2-yl)oxy]pyridin-3-yl}pyrimidine-5-carboxamide, trifluoroacetate salt] | – | – | –
6 | 240 | 5.2 | – | – | CCOc1cccnc1Oc1cncc(-c2ncc(C(=O)N[C@@H]3CNCC(F)(F)C3)cn2)c1 (single isomer, unassigned) [Example 19, N-[(3S)-5,5-difluoropiperidin-3-yl]-2-{5-[(3-ethoxypyridin-2-yl)oxy]pyridin-3-yl}pyrimidine-5-carboxamide or N-[(3R)-5,5-difluoropiperidin-3-yl]-2-{5-[(3-ethoxypyridin-2-yl)oxy]pyridin-3-yl}pyrimidine-5-carboxamide] | – | 34 ± 1.9 | 14 +/− 1.4 μL/min/10^6 cells
7 | – | 5.3 | – | – | CCOc1cccnc1Oc1cncc(-c2ncc(C(=O)N[C@H]3CC[C@H](C(F)(F)F)NC3)cn2)c1 (racemic) [Example 8, rac-2-{5-[(3-ethoxypyridin-2-yl)oxy]pyridin-3-yl}-N-[(3R,6S)-6-(trifluoromethyl)piperidin-3-yl]pyrimidine-5-carboxamide or rac-2-{5-[(3-ethoxypyridin-2-yl)oxy]pyridin-3-yl}-N-[(3R,6R)-6-(trifluoromethyl)piperidin-3-yl]pyrimidine-5-carboxamide] | – | – | –

Row | Structure (SMILES) | IC50 (human DGAT2 (hDGAT2)) [nM] | Basic pKa [2] | CLint (+/− STD Dev) (human liver microsomes; trifluoroacetate salt) [µL/min/mg] | CLint (+/− Std Dev) (human hepatocytes; trifluoroacetate salt) | IC50 [1] [nM] | CLint (+/− STD Dev) (human liver microsomes) [µL/min/mg] | CLint (+/− Std Dev) (human hepatocytes)
8 | CCOc1cc(F)cnc1Oc1cncc(-c2ncc(C(=O)N[C@@H]3CNCC[C@H]3F)cn2)c1 [Example 6, 2-{5-[(3-Ethoxy-5-fluoropyridin-2-yl)oxy]pyridin-3-yl}-N-[(3R,4R)-4-fluoropiperidin-3-yl]pyrimidine-5-carboxamide] | 80 | – | – | – | 2.4 | – | –
9 | CCOc1cccnc1Oc1cncc(-c2ncc(C(=O)N[C@@H]3CNCC[C@@H]3F)cn2)c1.O=C(O)C(F)(F)F.O=C(O)C(F)(F)F [Example 3, 2-{5-[(3-Ethoxypyridin-2-yl)oxy]pyridin-3-yl}-N-[(3R,4S)-4-fluoropiperidin-3-yl]pyrimidine-5-carboxamide, bis(trifluoroacetate) salt] | 40 | 8.1 | – | – | 23 | <7 | <1.9 +/− 0.35 μL/min/10^6 cells
10 | CCOc1cc(F)cnc1Oc1cncc(-c2ncc(C(=O)N[C@H]3CNCC[C@@H]3F)cn2)c1 [Example 13, 2-{5-[(3-ethoxy-5-fluoropyridin-2-yl)oxy]pyridin-3-yl}-N-[(3S,4S)-4-fluoropiperidin-3-yl]pyrimidine-5-carboxamide, formate salt] | 57 | – | – | – | 3.8 | – | –
11 | CCOc1cc(F)cnc1Oc1cncc(-c2ncc(C(=O)N[C@@H]3CNCC[C@@H]3F)cn2)c1.O=C(O)C(F)(F)F.O=C(O)C(F)(F)F [Example 1, 2-{5-[(3-Ethoxy-5-fluoropyridin-2-yl)oxy]pyridin-3-yl}-N-[(3R,4S)-4-fluoropiperidin-3-yl]pyrimidine-5-carboxamide, bis(trifluoroacetate) salt] | 5.8 | 7.7 | – | – | – | <7 | <2.7 +/− 0.72 μL/min/10^6 cells
